Laboratory results as given in the kinase profiling compilation of Christmann-Franck et al. (2016).
pKi: −log10 of the molar value.

Biological target: SGK1 (human) (UniProt O00141)
Test: Flashplate

Chain of SGK1 (human) (O00141 whole entry, looked up): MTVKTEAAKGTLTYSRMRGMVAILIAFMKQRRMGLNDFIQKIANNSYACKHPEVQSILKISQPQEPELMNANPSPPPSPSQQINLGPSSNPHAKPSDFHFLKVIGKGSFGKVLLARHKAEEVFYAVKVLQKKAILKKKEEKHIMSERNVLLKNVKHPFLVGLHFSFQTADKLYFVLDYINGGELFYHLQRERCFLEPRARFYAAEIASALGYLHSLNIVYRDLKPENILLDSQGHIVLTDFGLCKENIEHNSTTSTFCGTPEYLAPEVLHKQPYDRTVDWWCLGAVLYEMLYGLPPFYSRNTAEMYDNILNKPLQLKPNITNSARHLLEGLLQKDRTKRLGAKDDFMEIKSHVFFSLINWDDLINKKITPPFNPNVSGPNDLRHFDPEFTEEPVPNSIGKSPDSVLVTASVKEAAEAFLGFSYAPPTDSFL

Row | Compound | pKi
1 | CN(C(=O)C1CCCCC1)c1ccc2c(c1)nc(NC(=O)c1ccc(C#N)cc1)n2C | < 5.00
2 | NC(=O)c1cc2c(-c3ccc(F)cc3)cncc2s1 | 5.40
3 | CCCC(=O)Nc1n[nH]c2ccc(-c3cn(Cc4ccccc4)nn3)cc12 | 6.00
4 | Nc1n[nH]c2cccc(-c3ccc(NC(=O)Nc4cc(C(=O)O)ccc4F)cc3)c12 | 6.40
5 | O=c1nc(-c2cc3c(Oc4ccc(I)cc4)cncc3s2)[nH]o1 | 6.10
6 | Cc1c(O)cccc1NC(=O)c1cnn2c(-c3ccccc3)ccnc12 | < 5.00
7 | CC(C)(O)CNc1nccc(-c2c(-c3ccc(F)cc3F)nc3c(CC4CC4)nccn23)n1 | < 5.00
8 | CCCn1cc(-c2cnc(N)c3c(-c4ccc(NC(=O)Nc5cccc(F)c5)cc4)csc23)cn1 | < 5.00
9 | CNC(=O)c1cnc(N)c2c(-c3ccc(NC(=O)Nc4cccc(Cl)c4)cc3)csc12 | 5.50
10 | Cc1n[nH]c2c1C(c1ccccc1Cl)C(C#N)=C(N)O2 (stereo not given) | < 5.00
11 | Nc1nccc2scc(-c3ccc(NC(=O)Nc4cccc(Br)c4)cc3)c12 | < 5.00
12 | O=C(Cc1ccccc1Cl)Nc1ccc2cn[nH]c2c1 | < 5.00
13 | Nc1n[nH]c2cccc(-c3ccc(NC(=O)Nc4ccccc4)cc3)c12 | 6.00
14 | Cc1cnc(-c2cnc(NCCNc3ccc(C#N)cn3)nc2-c2ccc(Cl)cc2Cl)[nH]1 | < 5.00
15 | O=C1Cc2c([nH]c3ccc(Br)cc23)-c2ccccc2N1 | < 5.00
16 | O=c1[nH]cnc2c1oc1ccc(Cl)cc12 | < 5.00
17 | Cc1cccc(NC(=O)Nc2ccc(NC(=O)c3csc4ncnc(N)c34)cc2)c1 | 5.20
18 | CCOc1nc(C(=O)NCc2ccc(S(N)(=O)=O)cc2)cc(N)c1C#N | < 5.00
19 | Cc1cccc(NC(=O)Nc2ccc(-c3cncc4c3c(N)nn4C)cc2)c1 | < 5.10
20 | CC(C)Nc1c(-c2ccc3[nH]ncc3c2)nc2ncccn12 | 5.90
21 | COc1cccc([C@H](C)NC(=O)c2ccc(-c3ccncc3)cc2)c1 | < 5.00
22 | Cc1csc(NC(=O)c2sc3nc(-c4ccncc4)ccc3c2N)n1 | < 5.00
23 | Nc1noc2cccc(-c3cccc(O)c3)c12 | < 5.00
24 | N[C@H](COc1cncc(-c2ccc3c(c2)/C(=C/c2ccco2)C(=O)N3)c1)Cc1c[nH]c2ccccc12 | 7.60
25 | Nc1ncnc2sc(Br)c(-c3ccc(NC(=O)Cc4cccc(Cl)c4)cc3)c12 | < 5.00

Row | Compound | pKi
26 | CN(C)CCCOc1cc2c(c(-c3ccc(Nc4nc5ccccc5o4)cc3)c1)CNC2=O | < 5.00
27 | Cc1cccc(NC(=O)Nc2ccc(-c3csc4c(-c5cnn(C[C@@H](C)O)c5)cnc(N)c34)cc2)c1 | < 5.00
28 | O=C1NCc2c1cccc2-c1ccc(Nc2nc3ccccc3o2)cc1 | < 5.00
29 | CCOc1ccccc1/C=N/NC(=O)c1nnn(-c2nonc2N)c1N1CCCC1 | < 5.00
30 | O=C(Nc1cccc(C(F)(F)F)n1)Nc1ccnc2c(C(F)(F)F)cccc12 | < 5.00
31 | O=C(Nc1cccc(C(F)(F)F)n1)Nc1ccnc2c(F)cccc12 | < 5.00
32 | CNC(=O)N1CCN(CCCOc2ccc3c(c2)-c2[nH]nc(-c4ccc(C#N)nc4)c2C3)CC1 | < 5.00
33 | COc1ccc(CNc2c(Nc3ccc4[nH]ncc4c3)c(=O)c2=O)cc1 | < 5.00
34 | COc1cc(C=O)c(Cl)cc1NC(=O)Nc1cnc(C#N)cn1 | < 5.00
35 | OCCNc1cc2cc(-c3cccnc3)ccc2cn1 | 5.40
36 | Nc1ncnc2c1N=C(c1ccc(NC(=O)Nc3cccc(C(F)(F)F)c3)cc1)CCN2 | 5.60
37 | CC(C)(C)OC(=O)n1cc(-c2cncn2C2CCCCC2)c2ccccc21 | < 5.00
38 | COc1ccc(CNC(=O)Nc2ncc([N+](=O)[O-])s2)cc1 | < 5.00
39 | Cc1cccc(NC(=O)Nc2ccc(-c3noc4ncnc(N)c34)cc2)c1 | < 5.00
40 | CC(=O)c1cccc(-c2cnc3[nH]ccc3c2)c1 | < 5.00
41 | O=C(O)c1cc2c(-c3ccccc3)cncc2s1 | 5.40
42 | CCCS(=O)(=O)Nc1ccc(-c2ccc3[nH]nc(N)c3c2)cc1 | 6.50
43 | Cc1n[nH]c2ccc(-c3cncc(OC[C@@H](N)Cc4ccc(Cl)c(Cl)c4)c3)cc12 | 7.10
44 | Cc1c(C)n(Cc2ccccc2)c2ccc(C(=O)Nc3nc[nH]n3)cc12 | < 5.00
45 | Cc1ccc(F)c(NC(=O)Nc2ccc(-c3nsc4ncnc(N)c34)cc2)c1 | < 5.00
46 | N#Cc1ccc(-c2n[nH]c3c2Cc2ccc(OCCCCN4CCOCC4)cc2-3)cn1 | < 5.00
47 | COc1cc(S(C)(=O)=O)c(OC)cc1CC(=O)Nc1cc(N)c(C#N)c(OC(C)C)n1 | < 5.00
48 | Cn1cc(-c2cnc(N)c3c(-c4ccc(NC(=O)Nc5ccc(OC(F)F)cc5)cc4)csc23)cn1 | < 5.00
49 | COc1cccc(-c2cc3c(=O)[nH]c4ccccc4n3c2)c1 | < 5.00
50 | CCCCCCCCCCCCOc1ccc(NC(=N)N)cc1NC(=N)N | < 5.00

Row | Compound | pKi
51 | COc1ccc(Nc2nccc(Nc3c(N[C@H](C)C(C)(C)C)c(=O)c3=O)n2)cc1OC | 5.70
52 | Cc1ccccc1-c1c(C(=O)O)n(CCCOc2cccc3ccccc23)c2ccccc12 | < 5.00
53 | O=C(Nc1ccc(CO)cc1)c1cnn2c(-c3ccccc3)ccnc12 | < 5.00
54 | O=C(Nc1cnccn1)Nc1ccnc2ccc(C(F)(F)F)cc12 | 5.40
55 | CCN(CC)CCNC(=O)/C=C/c1cnc(N)c2c(-c3ccc(NC(=O)Nc4cccc(C)c4)cc3)csc12 | 5.70
56 | Oc1cccc(Nc2ncnc3scc(Cl)c23)c1 | < 5.00
57 | O=C(Nc1cnc2[nH]cc(-c3ccccc3)c2c1)c1c(F)cccc1F | 6.20
58 | O=C(Nc1cccc(Cl)c1)Nc1ncc(CCNc2ncnc3ccsc23)s1 | < 5.00
59 | N#Cc1cnc(NC(=O)Nc2ccc3cc(C(=O)O)ccc3c2)cn1 | < 5.00
60 | O=c1[nH]c2sc3c(c2c2nc(-c4cccnc4)nn12)CCCC3 | < 5.00
61 | Nc1n[nH]c2cccc(-c3ccc(Br)cc3)c12 | 5.30
62 | CNCc1ccc(-c2[nH]c3cc(F)cc4c3c2CCNC4=O)cc1 | < 5.00
63 | Nc1ncc(-c2ccoc2)c2scc(-c3ccc(NC(=O)Nc4ccccc4F)cc3)c12 | < 5.00
64 | Oc1ccc(Nc2[nH]nc(-c3ccc(O)cc3)c2-c2ccc(O)cc2)cc1 | 7.00
65 | CC(C)(C)c1ccc2nc(-c3n[nH]c4ccccc34)[nH]c2c1 | 5.90
66 | CC(C)Cn1c(N)nc2ccc(-c3c(-c4ccc(F)cc4)nc4sccn34)cc21 | < 5.00
67 | O=c1cc(-c2ccncc2)nc(NC2CCCCC2)[nH]1 | < 5.00
68 | CCc1c(-c2ccc(C(C)(C)O)cc2)[nH]c2nccnc12 | < 5.00
69 | Clc1cc2nn[nH]c2cc1Cl | < 5.00
70 | CNC(=O)/C=C/c1cnc(N)c2c(-c3ccc4sc(C)nc4c3)csc12 | < 5.00
71 | Cc1cc(C)c(/C=C2\C(=O)Nc3ccccc32)[nH]1 | 5.70
72 | COc1cc2c(N3CCN(C(=O)Nc4ccc(OC(C)C)cc4)CC3)ncnc2cc1OCCCN1CCCCC1 | < 5.10
73 | Brc1ccc2[nH]nc(-c3ccccc3)c2c1 | < 5.00
74 | CN(C(=O)C1CCCCC1)c1ccc2c(c1)nc(NC(=O)c1ccc(C#N)cc1)n2CCC(N)=O | < 5.00
75 | O=C1Cc2c([nH]c3ccc(Br)cc23)-c2ncccc2N1 | < 5.00

More lines, now with the values ahead:

Row | pKi | Compound
76 | < 5.00 | O=C1/C(=N\Nc2cccc3c(=O)[nH][nH]c(=O)c23)C(c2ccccc2)=NN1c1ccccc1
77 | 5.20 | CSc1nn(-c2ccccn2)c(N)c1C(N)=O
78 | < 5.00 | Cc1nccn2c(-c3ccnc(NCC(C)(C)C(=O)O)n3)c(-c3ccc(F)cc3F)nc12
79 | < 5.00 | Cc1cccc(NC(=O)Nc2ccc(-c3cccc4c3CNC4=O)cc2C)c1
80 | < 5.00 | CC1=NN(c2cccc(Br)c2)C(=O)/C1=C/c1c(C)c(C#N)c2nc3ccccc3n2c1O
81 | 6.10 | NC[C@@H](NC(=O)c1ccc(-c2ccncc2)cc1)c1ccccc1
82 | 6.10 | Cc1ccc(Nc2nc3ccc([N+](=O)[O-])cc3[nH]2)nc1
83 | < 5.00 | Cc1cccc(NC(=O)Nc2ccc(-c3csc4c(-c5cnn(C)c5)cnc(N)c34)cc2)c1
84 | < 5.00 | Cc1cccc(-c2c(-c3ccncc3)nc(NC[C@@H](N)Cc3ccccc3)n(C)c2=O)c1
85 | 5.20 | Cc1cccc(NC(=O)Nc2ccc(-c3csc4c(C#CCN5CCOCC5)cnc(N)c34)cc2)c1
86 | 5.60 | Nc1n[nH]c2nnc(-c3ccccc3)c(-c3ccccc3)c12
87 | < 5.00 | CCCCn1c(NC(=O)c2ccc(C#N)cc2)nc2cc(N(C)C(=O)C3CCCCC3)ccc21
88 | < 5.00 | O=C(NS(=O)(=O)c1ccc(NCCSc2ccc(O)cc2)c([N+](=O)[O-])c1)c1ccc(-c2ccc(F)cc2)cc1
89 | < 5.00 | N#C/C(=C\c1ccc(O)c(O)c1)C(=O)NCc1ccccc1
90 | 6.20 | Oc1ccc(-c2n[nH]c(Nc3cccc(Cl)c3)c2-c2ccc(O)cc2)cc1
91 | < 5.00 | O=C(NCc1ccccc1)Nc1ncc([N+](=O)[O-])s1
92 | 6.50 | Oc1cc(O)cc(/C=C/c2ccc(O)c(O)c2)c1
93 | < 5.00 | COc1cccc(Nc2ncnc3ccccc23)c1

Row | pKi | Compound
94 | < 5.00 | N[C@@H]1[C@H]2CN(c3nc4c(cc3F)c(=O)c(C(=O)O)cn4-c3ccc(F)cc3F)C[C@@H]12
95 | < 5.00 | O=S(=O)(O)c1ccc(NCc2ccc3c(c2)OCO3)c2c(O)cccc12
96 | 5.10 | Cc1cc(C)cc(NC(=O)Nc2ccc(-c3c(C)sc4ncnc(N)c34)cc2)c1
97 | < 5.00 | NC(=O)c1cccc2[nH]c(-c3ccc(C4CCCNC4)cc3F)nc12 (stereo not given)
98 | 5.20 | CN1CCC(NC(=O)c2cc3c(-c4ccccc4)n[nH]c3s2)CC1
99 | 5.30 | NCCCOc1cc2c(c(-c3ccc(Nc4nc5ccc(Cl)cc5o4)cc3)c1)CNC2=O
100 | < 5.00 | CCOc1nc(C(=O)NCc2ccc(S(C)(=O)=O)cc2)cc(N)c1Cl
101 | < 5.00 | CC(C)(C)c1cc(NC(=O)Nc2cccc3ccccc23)n(-c2cccc(C(=O)NCC#N)c2)n1
102 | < 5.00 | Nc1nc2ccc(-c3c(-c4ccc(F)cc4)nc4sccn34)cc2n1CC1CC1
103 | < 5.00 | Fc1cnc(Nc2ccccc2)nc1Nc1ccccc1
104 | < 5.00 | CCCC(=O)Nc1n[nH]c2nnc(-c3cccc(F)c3F)cc12
105 | < 5.00 | CC(C)(O)Cc1nnc2ccc(-c3c(-c4ccc(F)cc4F)nc4occn34)nn12
106 | < 5.00 | Cc1cc(C)cc(NC(=O)Nc2ccc(-c3cccc4c3CNC4=O)c(C(F)(F)F)c2)c1
107 | 5.20 | Cc1cc(Cl)ccc1NC(=S)NNC(=O)C(O)(c1ccccc1)c1ccccc1
108 | < 5.00 | Cc1nccn2c(-c3ccnc(NCC4(O)CC4)n3)c(-c3ccc(F)cc3F)nc12
109 | 5.60 | c1ccc(CNc2nc3ccc(-c4ccncc4)cc3s2)cc1
110 | 5.40 | COc1cc(/C=C2\SC(=O)NC2=O)ccc1O
